Calls of active or inactive are those of the source. The calls are words filed in the database; no cut-off is given here.
How the values were obtained:
JIMT-1 [1] = test: Antiproliferative activity against human JIMT-1 cells after 72 hrs by SRB assay; assay type: functional, cell-based; conditions: JIMT-1, 72 h
JIMT-1 [2] = test: Stabilization of human TACC3 expressed in JIMT-1 cells at 1 uM incubated for 6 hrs by cellular thermal shift assay; assay type: cell-based
[3] = Binding affinity to purified recombinant human TACC3 by isothermal titration calorimetry
JIMT-1 [4] = test: Stabilization of human TACC3 expressed in JIMT-1 cells at 10 uM incubated for 20 mins and measured in presence of pronase by drug affinity responsive target stability assay; assay type: cell-based
JIMT-1 [5] = test: Inhibition of colony formation in human JIMT-1 cells at 0.1 to 1 uM assessed as decrease in colony number incubated for 12 days by crystal violet staining based assay; assay type: functional, cell-based; conditions: dose 0.1-1 µM, time 12.0 day
JIMT-1 [6] = test: Induction of mitotic arrest in human JIMT-1 cells assessed as change in p-histone H3 levels and measured by Western blot analysis; assay type: functional, cell-based; conditions: dose 0.1-5 µM
JIMT-1 [7] = test: Induction of apoptosis in human JIMT-1 cells assessed as change in cleaved caspase-3 levels and measured by Western blot analysis; assay type: functional, cell-based; conditions: dose 0.1-5 µM
JIMT-1 [8] = test: Induction of apoptosis in human JIMT-1 cells assessed as change in cleaved PARP levels and measured by Western blot analysis; assay type: functional, cell-based; conditions: dose 0.1-5 µM
JIMT-1 [9] = test: Induction of DNA damage in human JIMT-1 cells assessed as change in p-H2AX levels and measured by Western blot analysis; assay type: functional, cell-based; conditions: dose 0.1-5 µM
JIMT-1 [10] = test: Induction of apoptosis in human JIMT-1 cells assessed as increase in apoptotic cells at 500 nM measured by Annexin-V and PI staining method (reference value: 4.1 +/- 0.3 %); assay type: functional
JIMT-1 [11] = test: Induction of mitotic arrest in human JIMT-1 cells assessed as increase in aberrant spindle formation at 200 to 500 nM measured by DAPI staining method; assay type: functional, cell-based; conditions: dose 200-500 nM
JIMT-1 [12] = test: Induction of mitotic arrest in human JIMT-1 cells assessed as increase in multipolar spindles formation at 200 to 500 nM; assay type: functional, cell-based; conditions: dose 200-500 nM
JIMT-1 [13] = test: Induction of mitotic arrest in human JIMT-1 cells assessed as increased localization of spindle assembly checkpoint marker BuBR1 to chromosomes at 500 nM measured by immunofluorescence staining method; assay type: functional, cell-based
JIMT-1 [14] = test: Induction of mitotic arrest in human JIMT-1 cells at 200 nM assessed as change in p-histone H3 levels in presence of Mps1 inhibitor TC Mps1 and measured by Western blot analysis; assay type: functional, cell-based
JIMT-1 [15] = test: Induction of apoptosis in human JIMT-1 cells at 200 nM assessed as change in cleaved PARP levels in presence of Mps1 inhibitor TC Mps1 and measured by Western blot analysis; assay type: functional, cell-based
JIMT-1 [16] = test: Induction of DNA damage in human JIMT-1 cells at 200 nM assessed as change in p-H2AX levels in presence of Mps1 inhibitor TC Mps1 and measured by Western blot analysis; assay type: functional, cell-based
RT-112 [17] = test: Antiproliferative activity against human RT-112 cells after 3 days by SRB assay; assay type: functional, cell-based; conditions: RT-112, 72 h
RT-4 = test: Antiproliferative activity against human RT-4 cells after 3 days by SRB assay; assay type: functional, cell-based; conditions: RT-4, 72 h
RT-112 [18] = test: Induction of mitotic arrest in human RT-112 cells assessed as decrease in ERK1/2 phosphorylation at 5 uM measured by western blot analysis; assay type: functional, cell-based
MCF-12A = test: Antiproliferative activity against human MCF-12A cells; assay type: functional, cell-based
MDA-MB-231 = test: Antiproliferative activity against human MDA-MB-231 cells; assay type: functional, cell-based
CAL-51 = test: Antiproliferative activity against human CAL-51 cells; assay type: functional, cell-based
HCC1143 = test: Antiproliferative activity against human HCC1143 cells; assay type: functional, cell-based
HCC1954 = test: Antiproliferative activity against human HCC1954 cells; assay type: functional, cell-based
JIMT-1 [19] = test: Antitumor activity in human JIMT-1 cells xenografted female immunodeficient nude mouse at 5 mg/kg, po administered every other day for 30 days; assay type: functional, organism-based; conditions: time 30.0 day
[20] = Toxicity in human JIMT-1 cells xenografted female immunodeficient nude mouse assessed as effect on body weight at 5 mg/kg, po administered every other day for 30 days; assay type: organism-based; conditions: in vivo, 720 h, time 30 day
JIMT-1 [21] = test: Antitumor activity in human JIMT-1 cells xenografted female nude mouse at 2 mg/kg, po administered every other day; assay type: functional, organism-based
JIMT-1 [22] = test: Antitumor activity in human JIMT-1 cells xenografted female nude mouse at 2 mg/kg, iv administered once every 2 weeks; assay type: functional, organism-based
JIMT-1 [23] = test: Antitumor activity in human JIMT-1 cells xenografted female nude mouse at 5 mg/kg, po administered every other day; assay type: functional, organism-based
[24] = Toxicity in human JIMT-1 cells xenografted female nude mouse assessed as effect on body weight at 2 mg/kg, po administered every other day; assay type: organism-based; conditions: in vivo
[25] = Toxicity in human JIMT-1 cells xenografted female nude mouse assessed as effect on body weight at 2 mg/kg, iv administered once every 2 weeks; assay type: organism-based; conditions: in vivo, 336 h
[26] = Toxicity in human JIMT-1 cells xenografted female nude mouse assessed as effect on body weight at 5 mg/kg, po administered every other day; assay type: organism-based; conditions: in vivo
JIMT-1 [27] = test: Antitumor activity in human JIMT-1 cells xenografted female nude mouse at 25 mg/kg, po administered for 23 days; assay type: functional, organism-based; conditions: time 23.0 day
[28] = Toxicity in human JIMT-1 cells xenografted female nude mouse assessed as effect on body weight at 25 mg/kg, po administered for 23 days; assay type: organism-based; conditions: in vivo, 552 h, time 23 day
EMT6 = test: Antitumor activity in mouse EMT6 xenografted cells syngeneic Balb/c mouse
[29] = Toxicity in mouse EMT6 cells xenografted syngeneic Balb/c mouse assessed as animal survival rate measured by Kaplan-Meier plot analysis; conditions: in vivo
[30] = Toxicity in mouse EMt6 cells xenografted syngeneic Balb/c mouse assessed as effect on body weight; conditions: in vivo
HCT-116 = test: Antitumor activity in human HCT-116 cells xenografted immunocompromised female nude mouse at 25 to 50 mg/kg, po administered daily; assay type: functional, organism-based; conditions: dose 25-50 mg/kg
[31] = Toxicity in human HCT-116 cells xenografted immunocompromised female nude mouse assessed as effect on body weight at 25 to 50 mg/kg, po administered daily; assay type: organism-based; conditions: in vivo, dose 25-50 mg/kg
CT26 = test: Antitumor activity in mouse CT26 cells xenografted syngeneic immunocompetent Balb/c mouse at 25 to 50 mg/kg, po administered daily; assay type: functional, organism-based; conditions: dose 25-50 mg/kg
[32] = Toxicity in mouse CT26 cells xenografted syngeneic immunocompetent Balb/c mouse assessed as effect on body weight at 25 to 50 mg/kg, po administered daily; assay type: organism-based; conditions: in vivo, dose 25-50 mg/kg
4T1 = test: Antitumor activity in mouse 4T1-Luc cells xenografted immunocompetent female mouse assessed as impairment of metastatic growth at 50 mg/kg, po administered every day; assay type: functional, organism-based
[33] = Toxicity in mouse 4T1-Luc cells xenografted immunocompetent female mouse assessed as animal survival at 50 mg/kg, po administered every day; assay type: organism-based; conditions: in vivo
[34] = Toxicity in female nude mouse assessed as body weight at 100 mg/kg, po after 1 day of administration; assay type: organism-based; conditions: in vivo, 24 h
[35] = Toxicity in female nude mouse assessed as body weight at 100 mg/kg, po after 2 days of administration; assay type: organism-based; conditions: in vivo, 48 h, time 2 day
[36] = Toxicity in female nude mouse assessed as body weight at 100 mg/kg, po after 3 days of administration; assay type: organism-based; conditions: in vivo, 72 h, time 3 day
[37] = Toxicity in female nude mouse assessed as body weight at 100 mg/kg, po after 4 days of administration; assay type: organism-based; conditions: in vivo, 96 h, time 4 day
[38] = Toxicity in female nude mouse assessed as body weight at 100 mg/kg, po after 5 days of administration; assay type: organism-based; conditions: in vivo, 120 h, time 5 day
[39] = Toxicity in female nude mouse assessed as body weight at 100 mg/kg, po after 6 days of administration; assay type: organism-based; conditions: in vivo, 144 h, time 6 day
[40] = Toxicity in female nude mouse assessed as body weight at 100 mg/kg, po after 7 days of administration; assay type: organism-based; conditions: in vivo, 168 h, time 7 day
[41] = Toxicity in female nude mouse assessed as body weight at 500 mg/kg, po administered once and measured after 1 day of administration; assay type: organism-based; conditions: in vivo, 24 h
[42] = Toxicity in female nude mouse assessed as body weight at 500 mg/kg, po administered once and measured after 2 days of administration; assay type: organism-based; conditions: in vivo, 48 h, time 2 day
[43] = Toxicity in female nude mouse assessed as body weight at 500 mg/kg, po administered once and measured after 3 days of administration; assay type: organism-based; conditions: in vivo, 72 h, time 3 day
[44] = Toxicity in female nude mouse assessed as organ toxicity at 500 mg/kg, po administered once for 1 to 3 days; assay type: organism-based; conditions: in vivo, time 1-3 day
[45] = Kinetic solubility in sodium phosphate buffer at pH 7.4 at 25 degree C after 2 hrs; assay type: physicochemical; conditions: read-out: Kinetic_solubility
[46] = Plasma protein binding in human assessed as unbound fraction; assay type: ADME, cell-free

COc1ccc(-c2cc(Nc3ccnc(N4CCOCC4)n3)on2)cc1
IC50 (JIMT-1 [1]): 120 nM
Activity (JIMT-1 [2]): Active
Kd [3]: 1.5 nM
Activity (JIMT-1 [4]): Active
Activity (JIMT-1 [5]): Active
Activity (JIMT-1 [6]): Dose-Dependent Effect
Activity (JIMT-1 [7]): Dose-Dependent Effect
Activity (JIMT-1 [8]): Dose-Dependent Effect
Activity (JIMT-1 [9]): Dose-Dependent Effect
Activity (JIMT-1 [10]): 45.6%
Activity (JIMT-1 [11]): Active
Activity (JIMT-1 [12]): Active
Activity (JIMT-1 [13]): Active
Activity (JIMT-1 [14]): Active
Activity (JIMT-1 [15]): Active
Activity (JIMT-1 [16]): Active
IC50 (RT-112 [17]): 300 nM
IC50 (RT-4): 3660 nM
Activity (RT-112 [18]): Active
IC50 (MCF-12A): > 10000 nM
Activity (MDA-MB-231): Active
Activity (CAL-51): Active
Activity (HCC1143): Active
Activity (HCC1954): Active
Activity (JIMT-1 [19]): Active
Activity [20]: Non-Toxic
Activity (JIMT-1 [21]): Active
Activity (JIMT-1 [22]): Active
Activity (JIMT-1 [23]): Active
Activity [24]: Non-Toxic
Activity [25]: Non-Toxic
Activity [26]: Non-Toxic
Activity (JIMT-1 [27]): Active
Activity [28]: Non-Toxic
Activity (EMT6): Active
MSD [29]: 22 days
Activity [30]: Non-Toxic
Activity (HCT-116): Active
Activity [31]: Non-Toxic
Activity (CT26): Active
Activity [32]: Non-Toxic
Activity (4T1): Active
MSD [33]: 28 days
Activity [34]: 17.4 g
Activity [35]: 16.2 g
Activity [36]: 16.3 g
Activity [37]: 17 g
Activity [38]: 16.5 g
Activity [39]: 16.7 g
Activity [40]: 16.8 g
Activity [41]: 21.1 g
Activity [42]: 20.9 g
Activity [43]: 21.5 g
Activity [44]: Non-Toxic
solubility kinetic at 2 h [45]: < 1 µM
Activity [46]: 1.13%
